Experimental data from patent US20250197374A1, “WEE1 DEGRADING COMPOUNDS AND USES THEREOF” (BRISTOL-MYERS SQUIBB COMPANY, priority 2023, published 2025).

Experiments:
Type in all cases: cell-based
[1] = target: T1, WEE1 (Homo sapiens, UniProt P30291+Q96SW2); assay: WEE1-ePL degradation assay (293T-LentiX, InCELL Hunter luminescence, 4 hr); details: for DC50: LentiX-HEK293T cells expressing WEE1-ePL, 4 hr incubation, read-out: 293T-LentiX WEE1-ePL Degradation 4 hr EC50; for 293T-LentiX WEE1-ePL Degradation 4 hr YMin (%): lower limit of fit, % of DMSO control signal remaining
T1 construct: C-terminal ePL-tagged (DiscoverX, Fremont, CA) full-length WEE1 expression construct; expressed in transfected cells; host or cells: LentiX-HEK293T (Invitrogen), lentivirally transduced; the cells also over-express GSPT1-GN
Procedure, shortened: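 LentiX-HEK293T cells expressing C-terminally ePL-tagged full-length WEE1 plus non-degradable GSPT1-GN (G575N, N-terminal 158 aa truncated). Treated 4 h at 37 °C with a 10-point, 3-fold series from 1 or 10 µM, then read by InCELL Hunter luminescence. EC50 from four-parameter logistic fit, Ymax set by DMSO control.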

[2] = system: MKN45 cells; assay: MKN45 cell proliferation assay (Cell-Titer-Glo, 120 hr); details: for EC50: Homo sapiens, MKN-45, 120 h, read-out: MKN45 Cell Prolif. 120 hr EC50; for MKN45 Cell Prolif. 120 hr YMin (%): minimal percent of DMSO control observed
Procedure, shortened: (§1)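 MKN45 (400/well) and MDA-MB-231 (800/well) cells in RPMI with 10% FBS were exposed to 10-point half-log doses from 1 or 10 uM (0.1% DMSO) for 120 h at 37 °C. Viability was read by CellTiter-Glo luminescence. EC50 came from blank-subtracted, %DMSO four-parameter fits, with Ymin-obs as the lowest %DMSO observed.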

[3] = system: MDA-MB-231 cells; assay: MDA-MB-231 cell proliferation assay (Cell-Titer-Glo, 120 hr); details: for EC50: Homo sapiens, MDA-MB-231, 120 h, read-out: MDA-MB 231 Cell Prolif. 120 hr EC50; for MDA-MB 231 Cell Prolif. 120 hr YMin (%): minimal percent of DMSO control observed
Procedure, shortened: as §1

T1 sequence (P30291 whole entry): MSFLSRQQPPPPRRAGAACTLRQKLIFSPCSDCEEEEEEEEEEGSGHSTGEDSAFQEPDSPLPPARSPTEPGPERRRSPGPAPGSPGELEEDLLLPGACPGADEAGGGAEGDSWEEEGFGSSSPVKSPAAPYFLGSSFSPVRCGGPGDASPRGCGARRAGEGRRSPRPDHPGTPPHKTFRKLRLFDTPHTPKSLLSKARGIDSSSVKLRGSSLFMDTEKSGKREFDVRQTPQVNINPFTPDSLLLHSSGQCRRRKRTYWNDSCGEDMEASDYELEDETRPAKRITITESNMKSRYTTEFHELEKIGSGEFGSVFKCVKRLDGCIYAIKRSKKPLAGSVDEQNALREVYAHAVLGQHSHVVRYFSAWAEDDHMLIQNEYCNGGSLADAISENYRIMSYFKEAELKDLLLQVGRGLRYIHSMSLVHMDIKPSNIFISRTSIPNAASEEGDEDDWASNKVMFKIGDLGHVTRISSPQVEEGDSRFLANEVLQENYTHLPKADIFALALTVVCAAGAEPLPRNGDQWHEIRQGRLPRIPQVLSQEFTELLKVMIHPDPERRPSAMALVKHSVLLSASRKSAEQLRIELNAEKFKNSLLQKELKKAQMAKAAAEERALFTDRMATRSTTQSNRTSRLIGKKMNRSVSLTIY
T1 sequence (Q96SW2 whole entry): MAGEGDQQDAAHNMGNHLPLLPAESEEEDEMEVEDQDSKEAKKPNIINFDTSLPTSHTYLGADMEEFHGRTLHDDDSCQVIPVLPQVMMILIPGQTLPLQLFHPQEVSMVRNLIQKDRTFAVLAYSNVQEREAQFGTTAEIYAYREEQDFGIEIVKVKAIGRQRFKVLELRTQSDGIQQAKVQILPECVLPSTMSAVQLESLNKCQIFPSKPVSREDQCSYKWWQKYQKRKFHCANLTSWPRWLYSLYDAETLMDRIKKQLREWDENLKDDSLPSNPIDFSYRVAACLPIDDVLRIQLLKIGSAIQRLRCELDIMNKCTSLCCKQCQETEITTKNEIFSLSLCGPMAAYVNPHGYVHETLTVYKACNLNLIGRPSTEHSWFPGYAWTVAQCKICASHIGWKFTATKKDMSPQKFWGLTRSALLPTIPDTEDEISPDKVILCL
T1 sequence (Q16531 whole entry partner): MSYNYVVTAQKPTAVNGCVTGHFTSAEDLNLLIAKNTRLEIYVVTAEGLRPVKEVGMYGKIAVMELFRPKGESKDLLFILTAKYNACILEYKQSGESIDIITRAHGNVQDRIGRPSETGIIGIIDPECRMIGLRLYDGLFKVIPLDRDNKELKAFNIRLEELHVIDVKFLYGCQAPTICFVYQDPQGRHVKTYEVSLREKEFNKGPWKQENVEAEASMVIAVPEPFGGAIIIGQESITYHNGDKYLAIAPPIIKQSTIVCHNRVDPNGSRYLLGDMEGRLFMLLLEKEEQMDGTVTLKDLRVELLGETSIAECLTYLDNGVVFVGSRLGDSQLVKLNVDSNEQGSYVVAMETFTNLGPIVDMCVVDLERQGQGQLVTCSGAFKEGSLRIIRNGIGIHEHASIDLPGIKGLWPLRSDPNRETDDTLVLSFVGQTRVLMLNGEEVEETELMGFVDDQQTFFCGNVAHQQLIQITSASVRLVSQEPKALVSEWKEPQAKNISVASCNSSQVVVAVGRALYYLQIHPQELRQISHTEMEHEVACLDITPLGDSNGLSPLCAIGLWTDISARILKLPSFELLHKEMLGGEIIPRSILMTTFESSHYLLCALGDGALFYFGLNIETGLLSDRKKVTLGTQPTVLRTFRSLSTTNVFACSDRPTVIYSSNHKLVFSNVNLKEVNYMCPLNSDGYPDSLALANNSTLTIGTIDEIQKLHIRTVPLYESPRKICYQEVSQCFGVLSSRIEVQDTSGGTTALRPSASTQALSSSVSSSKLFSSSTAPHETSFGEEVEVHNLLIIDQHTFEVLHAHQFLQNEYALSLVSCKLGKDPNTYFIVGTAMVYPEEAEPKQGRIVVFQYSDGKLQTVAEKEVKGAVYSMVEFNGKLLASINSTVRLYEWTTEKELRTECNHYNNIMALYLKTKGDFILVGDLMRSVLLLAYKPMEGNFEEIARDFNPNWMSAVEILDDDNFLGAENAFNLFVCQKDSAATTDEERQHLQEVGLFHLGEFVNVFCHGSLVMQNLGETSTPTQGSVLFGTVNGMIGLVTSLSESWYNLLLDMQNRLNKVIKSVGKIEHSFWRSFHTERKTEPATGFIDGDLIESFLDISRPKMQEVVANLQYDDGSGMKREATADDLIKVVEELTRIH

Row | Compound | DC50 [1] | 293T-LentiX WEE1-ePL Degradation 4 hr YMin (%) [1] | EC50 [2] | MKN45 Cell Prolif. 120 hr YMin (%) [2] | EC50 [3] | MDA-MB 231 Cell Prolif. 120 hr YMin (%) [3]
1 | COC[C@@H]1CN(Cc2cc(F)c3nc(COC4CCN(C)CC4)ncc3c2)C[C@H]1Oc1ccc2c(c1)CN([C@H]1CCC(=O)NC1=O)C2=O [Example 43, (3S)-3-(5-{[(3S,4S)-1-[(8-fluoro-2-{[(1-methylpiperidin-4-yl)oxy]methyl}quinazolin-6-yl)methyl]-4-(methoxymethyl)pyrrolidin-3-yl]oxy}-1-oxo-2,3-dihydro-1H-isoindol-2-yl)piperidine-2,6-dione] | 133 nM | 34.3% | 38 nM | 10.0% | 520 nM | 51.3%
2 | COC[C@@H]1CN(Cc2cc(F)c3nc(N4CCN(CC(F)(F)F)CC4)ccc3c2)C[C@H]1Oc1ccc2c(c1)CN([C@H]1CCC(=O)NC1=O)C2=O [Example 44, (3S)-3-(5-{[(3S,4S)-1-({8-fluoro-2-[4-(2,2,2-trifluoroethyl)piperazin-1-yl]quinolin-6-yl}methyl)-4-(methoxymethyl)pyrrolidin-3-yl]oxy}-1-oxo-2,3-dihydro-1H-isoindol-2-yl)piperidine-2,6-dione] | 1 nM | 27.8% | 1 nM | 8.9% | 14 nM | 22.3%
3 | COC[C@@H]1CN(Cc2cc(F)c3nc(C4CN(C(C)=O)C4)ncc3c2)C[C@H]1Oc1ccc2c(c1)CN([C@H]1CCC(=O)NC1=O)C2=O [Example 45, (3S)-3-(5-{[(3S,4S)-1-{[2-(1-acetylazetidin-3-yl)-8-fluoroquinazolin-6-yl]methyl}-4-(methoxymethyl)pyrrolidin-3-yl]oxy}-1-oxo-2,3-dihydro-1H-isoindol-2-yl)piperidine-2,6-dione] | 53 nM | 31.5% | 35 nM | 13.4% | 278 nM | 52.6%
4 | COC[C@@H]1CN(Cc2cc(F)c3nc(C4CN(CC(F)(F)F)C4)ncc3c2)C[C@H]1Oc1ccc2c(c1)CN([C@H]1CCC(=O)NC1=O)C2=O [Example 46, (3S)-3-(5-{[(3S,4S)-1-({8-fluoro-2-[1-(2,2,2-trifluoroethyl)azetidin-3-yl]quinazolin-6-yl}methyl)-4-(methoxymethyl)pyrrolidin-3-yl]oxy}-1-oxo-2,3-dihydro-1H-isoindol-2-yl)piperidine-2,6-dione] | 4 nM | 26.2% | 2 nM | 8.7% | 18 nM | 17.7%
5 | COC[C@@H]1CN(Cc2cc(F)c3nc(N4C[C@H]5C[C@@H](C4)O5)ccc3c2)C[C@H]1Oc1ccc2c(c1)CN([C@H]1CCC(=O)NC1=O)C2=O [Example 47, (S)-3-(5-(((3S,4S)-1-((2-((1R,5S)-6-oxa-3-azabicyclo[3.1.1]heptan-3-yl)-8-fluoroquinolin-6-yl)methyl)-4-(methoxymethyl)pyrrolidin-3-yl)oxy)-1-oxoisoindolin-2-yl)piperidine-2,6-dione] | 1 nM | 28.7% | 1 nM | 9.8% | 34 nM | 30.0%
6 | COC[C@@H]1CN(Cc2cc3ccc(N4CCOCC4)c(F)c3cn2)C[C@H]1Oc1ccc2c(c1)CN([C@H]1CCC(=O)NC1=O)C2=O [Example 48, (3S)-3-(5-{[(3S,4S)-1-{[8-fluoro-7-(morpholin-4-yl)isoquinolin-3-yl]methyl}-4-(methoxymethyl)pyrrolidin-3-yl]oxy}-1-oxo-2,3-dihydro-1H-isoindol-2-yl)piperidine-2,6-dione] |  | 22.9% | 1 nM | 7.8% | 4 nM | 22.0%
7 | COC[C@@H]1CN(Cc2cc(F)c3nc(C4CC(C)(C)OC(C)(C)C4)ccc3c2)C[C@H]1Oc1ccc2c(c1)CN([C@H]1CCC(=O)NC1=O)C2=O [Example 53, (3S)-3-(5-{[(3S,4S)-1-{[8-fluoro-2-(2,2,6,6-tetramethyloxan-4-yl)quinolin-6-yl]methyl}-4-(methoxymethyl)pyrrolidin-3-yl]oxy}-1-oxo-2,3-dihydro-1H-isoindol-2-yl)piperidine-2,6-dione] |  | 27.9% |  | 10.5% | 8 nM | 13.4%
8 | COC[C@@H]1CN(Cc2cc(F)c3nc(C45CCC(O)(CC4)CC5)ccc3c2)C[C@H]1Oc1ccc2c(c1)CN([C@H]1CCC(=O)NC1=O)C2=O [Example 55, (3S)-3-(5-{[(3S,4S)-1-[(8-fluoro-2-{4-hydroxybicyclo[2.2.2]octan-1-yl}quinolin-6-yl)methyl]-4-(methoxymethyl)pyrrolidin-3-yl]oxy}-1-oxo-2,3-dihydro-1H-isoindol-2-yl)piperidine-2,6-dione] |  | 27.9% |  | 10.9% | 16 nM | 22.6%
9 | COC[C@@H]1CN(Cc2cc(F)c3nc(C45CC(C(C)(C)O)(C4)C5)ccc3c2)C[C@H]1Oc1ccc2c(c1)CN([C@H]1CCC(=O)NC1=O)C2=O [Example 56, (3S)-3-(5-{[(3S,4S)-1-({8-fluoro-2-[3-(2-hydroxypropan-2-yl)bicyclo[1.1.1]pentan-1-yl]quinolin-6-yl}methyl)-4-(methoxymethyl)pyrrolidin-3-yl]oxy}-1-oxo-2,3-dihydro-1H-isoindol-2-yl)piperidine-2,6-dione] |  | 29.9% |  | 10.0% | 19 nM | 25.5%
10 | COC[C@@H]1CN(Cc2cc(F)c3nc(C(=O)N(C)C)ccc3c2)C[C@H]1Oc1ccc2c(c1)CN([C@H]1CCC(=O)NC1=O)C2=O [Example 58, 6-{[(3S,4S)-3-({2-[(3S)-2,6-dioxopiperidin-3-yl]-1-oxo-2,3-dihydro-1H-isoindol-5-yl}oxy)-4-(methoxymethyl)pyrrolidin-1-yl]methyl}-8-fluoro-N,N-dimethylquinoline-2-carboxamide] | 5 nM | 31.1% | 6 nM | 11.2% | 213 nM | 28.1%
11 | COC[C@@H]1CN(Cc2cc(F)c3nc(N4CCCC4=O)ccc3c2)C[C@H]1Oc1ccc2c(c1)CN([C@H]1CCC(=O)NC1=O)C2=O [Example 59, (3S)-3-(5-{[(3S,4S)-1-{[8-fluoro-2-(2-oxopyrrolidin-1-yl)quinolin-6-yl]methyl}-4-(methoxymethyl)pyrrolidin-3-yl]oxy}-1-oxo-2,3-dihydro-1H-isoindol-2-yl)piperidine-2,6-dione] | 1 nM | 29.1% | 1 nM | 10.7% | 61 nM | 12.1%
12 | COC[C@@H]1CN(Cc2cc(F)c3nc(C4(O)CCOCC4)ccc3c2)C[C@H]1Oc1ccc2c(c1)CN([C@H]1CCC(=O)NC1=O)C2=O [Example 60, (3S)-3-(5-{[(3S,4S)-1-{[8-fluoro-2-(4-hydroxyoxan-4-yl)quinolin-6-yl]methyl}-4-(methoxymethyl)pyrrolidin-3-yl]oxy}-1-oxo-2,3-dihydro-1H-isoindol-2-yl)piperidine-2,6-dione] | 1 nM | 27.4% | 3 nM | 11.7% | 54 nM | 33.7%
13 | COC[C@@H]1CN(Cc2cc(F)c3nc(N4CCCC4=O)ncc3c2)C[C@H]1Oc1ccc2c(c1)CN([C@H]1CCC(=O)NC1=O)C2=O [Example 61, (3S)-3-(5-{[(3S,4S)-1-{[8-fluoro-2-(2-oxopyrrolidin-1-yl)quinazolin-6-yl]methyl}-4-(methoxymethyl)pyrrolidin-3-yl]oxy}-1-oxo-2,3-dihydro-1H-isoindol-2-yl)piperidine-2,6-dione] | 25 nM | 29.3% | 9 nM | 12.0% | 98 nM | 41.3%
